In US10035806B2, “Derivatized corroles and metallocorroles and their use as imaging and therapeutic agents” (CALIFORNIA INSTITUTE OF TECHNOLOGY, priority 2015, dated 2018):
Marks after values point to notes of the source that are not given here.

Legend:
[1] = system: CCRF-CEM; assay: NCI60 anticancer drug screen; type: cell-based, human; details: CCRF-CEM (Leukemia), 10 μM, 48 h
Source text: The aminocaproate-substituted corrole Complex 3 was submitted to NCI for cytotoxic screening at a single high dose (10−5M) in a panel of 60 human tumor cell lines (NCI60). Details of the cytotoxicity assessment in the NCI anticancer drug screen have been described previously, in Monks A, et al. (1991) Feasibility of a high-flux anticancer drug screen using a diverse panel of cultured human tumor cell lines. J Natl Cancer Inst 83(11):757-766, this reference being incorporated by reference for these teachings.
In view of the promising results observed for carboxylated corroles, Complex 3 was selected for expanded cell screening to uncover additional susceptible cancer cell lines. The cytotoxic activity of Complex 3 was tested at a dose of 10^−5 M against 60 human cancer cell lines representing nine distinct tumor types in the anticancer screening program of the National Cancer Institute (NCI). The in vitro parameters for cytotoxicity, growth percent, and lethality were obtained for Complex 3 and reported as a mean graph of the percent growth of treated cells (FIG. 7). Bars in the mean graph depict the deviation of individual tumor cell lines from the overall mean value for all cells tested. Bars that project to the right of the mean represent cell lines that are more sensitive to Complex 3, whereas cell lines less sensitive to the compound display bars that project to the left.
The numerical values associated with this assay represent growth relative to the no-drug control and the numbers of cells at time 0 (FIG. 7). This allows detection of both growth inhibition (values between 0 and 100) and lethality (values less than 0). For example, a value of 100 signifies no growth inhibition, 40 means 60% growth inhibition, 0 means no net growth over the course of the experiment, −40 means 40% lethality, and −100 indicates all cells are dead. […] Growth inhibitions reflect cytostatic activity of the compound as previously shown for Complex 2. In contrast, cell lethality is only evident in melanoma cells, specifically the LOX IMVI and SK-MEL-28 cell lines.

[2] = system: LOX IMVI; assay: NCI60 anticancer drug screen; type: cell-based, human; details: LOX IMVI (Melanoma), 10 μM, 48 h; lethality rather than inhibition
[3] = system: OVCAR-3; assay: MTS assay (cytotoxicity); type: cell-based, human; details: OVCAR-3 (ovarian), 72 h exposure in the dark, mean of three experiments
Source text: (§1) Reagents were obtained from the indicated suppliers: HBSS without phenol red and trypsin-EDTA (0.25%), Invitrogen/Gibco; PBS, Mediatech; 4′,6-diamidino-2-phenylindole dihydrochloride (DAPI) and DMSO, Sigma-Aldrich; paraformaldehyde, Electron Microscopy Sciences; WGA, Alexa Fluor 488 conjugate, Invitrogen/Molecular Probes; and ProLong Gold Antifade Mountant with DAPI, Life Technologies. Human Cancer Cell Lines. Four cell lines from the NCI60 cell panel (Shoemaker RH (2006) The NCI60 human tumour cell line anticancer drug screen. Nat Rev Cancer 6(10):813-823) representing four distinct tumor types were used in this study: DU-145, prostate; MDA-MB-231, breast; SK-MEL-28, melanoma; and OVCAR-3, ovarian. Cells were grown in RPMI 1640 cell culture medium (Mediatech) containing 2 mM L-glutamine, supplemented with 10% FBS (Omega Scientific), and maintained at 37° C. under 5% CO2 in a humidified incubator.
(§2) At the time of drug treatment, stock solutions of 1-4 were diluted to 10-fold the desired final test concentrations with RPMI medium 1640. Aliquots of […] of these diluted solutions were added to the appropriate microtiter wells containing 90 μL of medium, resulting in the required final drug concentrations (eight concentrations per compound, ranging from 0.3 to 600 μM). The final concentration of DMSO in test culture was <1%. […] Following 72 h of exposure at 37° C., cell viability was determined using the MTS assay (CellTiter 96 Aqueous One Cell Proliferation Assay; Promega) according to the manufacturer's instructions. Absorbances were measured using a microplate reader (Synergy 4; Biotek Instruments) at 490 nm. Experiments were performed in triplicate and each dose-response curve represents the mean of three or more independent experiments. Spectrophotometric data were analyzed by sigmoid dose-response, nonlinear regression analysis; the IC50, Emax values, and associated SE were calculated using GraphPad Prism 6 (GraphPad Software).
(§3) The effects of bis-sulfonate, carboxylate, and aminocaproate ring substituents on gallium corrole cytotoxicities were examined using four human cancer cell lines, representing tumors of different origin selected based on previously described sensitivities.

[4] = system: SK-MEL-28; assay: MTS assay (cytotoxicity); type: cell-based, human; details: SK-MEL-28 (melanoma), 72 h exposure in the dark, mean of three experiments
Source text: as §1, §2, §3

[5] = system: DU-145; assay: MTS assay (cytotoxicity); type: cell-based, human; details: DU-145 (prostate), 72 h exposure in the dark, MTS assay, mean of three experiments
Source text: as §1, §2, §3

[6] = system: MDA-MB-231; assay: MTS assay (cytotoxicity); type: cell-based, human; details: MDA-MB-231 (breast), 72 h exposure in the dark, mean of three experiments
Source text: as §1, §2, §3

[7] = system: DU-145, SK-MEL-28, MDA-MB-231, OVCAR-3; assay: MTS assay, all four cell lines taken together; type: cell-based, human; details: Table 1 comparison, 72 h
Source text: as §1, with “Cells were grown in RPMI 1640 cell culture medium (Mediatech) containing 2 mM L-glutamine, supplemented with 10% FBS (Omega Scientific), and maintained at 37° C. under 5% CO2 in a humidified incubator.” left out
At the time of drug treatment, stock solutions of 1-4 were diluted to 10-fold the desired final test concentrations with RPMI medium 1640. […] Following 72 h of exposure at 37° C., cell viability was determined using the MTS assay (CellTiter 96 Aqueous One Cell Proliferation Assay; Promega) according to the manufacturer's instructions. Absorbances were measured using a microplate reader (Synergy 4; Biotek Instruments) at 490 nm. […] Spectrophotometric data were analyzed by sigmoid dose-response, nonlinear regression analysis; the IC50, Emax values, and associated SE were calculated using GraphPad Prism 6 (GraphPad Software). […]

[8] = solubility in water; type: physicochemical
[9] = system: SK-MEL-28; assay: NCI60 anticancer drug screen; type: cell-based, human; details: SK-MEL-28 (Melanoma), 10 μM, 48 h; lethality rather than inhibition

O=C(O)CCCCCNc1c(F)c(F)c(C2=C3C=CC4=[N+]3[Ga-]35[n]6c2ccc6C(c2c(F)c(F)c(F)c(F)c2F)=c2ccc([n]23)=C(c2c(F)c(F)c(F)c(F)c2F)c2ccc4[n]25)c(F)c1F (stereo not drawn) [Complex 3]
Growth inhibition, % [1]: 91.1%
% lethality [2]: 9.7** %
IC50 [3]: 12.7 µM
IC50 [4]: 14.4 µM
IC50 [5]: 17.6 µM
IC50 [6]: 13.7 µM
IC50 lower than Complex 2 [7]: 10 fold
solubility in water [8]: easily solubilized in water
% lethality [9]: 12.1** %
